For assay [1], the system named is pain threshold in the mouse hot plate method [小鼠热板法痛阈]. Description: Effect on pain threshold in the mouse hot plate method. It counts as in vivo, Kunming mouse, female. The settings on record: IV, dose exceeding 80mg/kg. On the technique in general: Thermal pain tests record how soon the animal reacts.
In assay [2] the test system is carrageenan-induced rise of body temperature in rats [大鼠角叉菜胶诱导的体温升高]. Description: Effect on carrageenan-induced rise of body temperature in rats. It counts as in vivo, SD rat. The settings on record: rat, IV.
For assay [3] the following is noted: background art; cited from earlier work.

The source of these data is CN104546697A, “一种右旋布洛芬注射液药物组合物及其制备方法” (CHENGDU EASTON PHARMACEUTICAL Co Ltd, priority 2013, dated 2015).

Take `CC(C)Cc1ccc([C@H](C)C(=O)O)cc1` [右旋布洛芬]: the “analgesic effect above the best dose range” value in assay [1] was “镇痛效果反而减弱”. Moreover, the “dose range with the best, dose-dependent effect” value in assay [2] (carrageenan-induced rise of body temperature) is recorded as 7.5~30 mg/kg. Moreover, the “temperature-lowering effect above the best dose range” value in assay [2] (dose exceeding 40mg/kg) was “降温效果反而减弱”. For the same molecule, in assay [3], the “pharmacological activity relative to levorotatory ibuprofen” value is reported as 160 fold and the “pharmacological activity relative to racemate” value is 1.6 fold.
`CC(C)Cc1ccc([C@@H](C)C(=O)O)cc1` [左旋布洛芬]: the pharmacological activity entry in assay [3] is on record as “非活性成分”.
